This is an account of results in US20120309821A1, “Use of epigallocatechin-3-gallate for immune regulation” (NATIONAL DEFENSE MEDICAL CENTER, priority 2011, published 2012).

Holding throughout (format): in vivo, mouse
The test system of one assay is superoxide anion. The experiment in a line: Kidney in-situ ROS production by dihydroethidium (DHE) labeling. To be noted: 120 mg/kg by gavage daily, week 34. On the procedure:
Female NZB/W F1 mice were purchased from the Animal Center of the National Taiwan University (Taipei, Taiwan, ROC) and, at 12 weeks of age, were divided into two groups, one of which was given normal saline and served as the disease control, while the other was given 120 mg/kg body weight of EGCG (Ryss Lab, Inc., CA, USA) (this dose is a slight modification of those used in previous in vivo studies) by gavage daily till sacrificed at 34-weeks-old. 8-Week-old NZB/W F1 female mice (prior to onset of autoantibody production) were used as normal controls. Urine samples were collected in metabolic cages every 2 weeks and urine protein levels were measured, and serum samples were used to measure serum levels of blood urea nitrogen (BUN) and creatinine (Cr) as described previously (Ka, S. M. et al. Decoy receptor 3 ameliorates an autoimmune crescentic glomerulonephritis model in mice. J Am Soc Nephrol 18:2473-2485; 2007). […] Kidney in situ superoxide anion production was determined by dihydroethidium (DHE) labeling. Fluorescent images were quantified by counting the percentage of positive nuclei in the total nuclei per kidney cross-section. Superoxide anion levels in serum and kidney tissues were measured as described previously and the results expressed as reactive luminescence units (RLU) per 15 min per milligram dry weight (i.e., RLU/15 min/mg dry weight).

The next assay relates to IL-1β. The experiment in a line: Serum IL-1β ELISA. The note with it: 120 mg/kg by gavage daily; week 34; vs disease control mice. On the procedure:
(§1) Female NZB/W F1 mice were purchased from the Animal Center of the National Taiwan University (Taipei, Taiwan, ROC) and, at 12 weeks of age, were divided into two groups, one of which was given normal saline and served as the disease control, while the other was given 120 mg/kg body weight of EGCG (Ryss Lab, Inc., CA, USA) (this dose is a slight modification of those used in previous in vivo studies) by gavage daily till sacrificed at 34-weeks-old. 8-Week-old NZB/W F1 female mice (prior to onset of autoantibody production) were used as normal controls. Urine samples were collected in metabolic cages every 2 weeks and urine protein levels were measured, and serum samples were used to measure serum levels of blood urea nitrogen (BUN) and creatinine (Cr) as described previously (Ka, S. M. et al. Decoy receptor 3 ameliorates an autoimmune crescentic glomerulonephritis model in mice. J Am Soc Nephrol 18:2473-2485; 2007). All animal experiments were performed upon the ethical approval of the Institutional Animal Care and Use Committee of the National Defense Medical Center, Taiwan and according to the ethical rules in the NIH Guide for the Care and Use of Laboratory Animals. Serum levels of IL-1β and IL-18 were measured using commercial ELISA kits (BD Biosciences) according to the manufacturer's instructions.

The test system of the next assay is NLRP3. The experiment in a line: Western blot of NLRP3 in kidney. To be noted: 120 mg/kg by gavage daily; week 34; increase seen in disease control. On the procedure: as §1, with “[…] Antibodies to histone H3 (Cell Signaling) or β-actin (Santa Cruz) were used as internal controls for the nuclear” for “Serum levels of IL-1β”, “cytosolic target proteins, respectively.” for “IL-18 were measured using commercial ELISA kits (BD Biosciences) according to the manufacturer's instructions.”
A general note: A western blot detects proteins with antibodies after separation by electrophoresis.

The subject of assay [1] is CD19+CD69+ cells (activated B cells). In words: B cell activation in splenocytes by flow cytometry. The note with it: 120 mg/kg by gavage daily; week 34; EGCG-treated vs disease mice. On the procedure:
as §1, with “Serum levels of IL-1β and IL-18 were measured using commercial ELISA kits (BD Biosciences) according to the manufacturer's instructions.” left out
For orientation: In flow cytometry, cells or beads pass a laser one at a time.

For Epigallocatechin-3-gallate [EGCG], the “DHE fluorescence (in-situ ROS production in renal tissue)” value with superoxide anion was “very low”. Besides, the “serum levels of IL-1β” value with IL-1β is “significantly lower”. Also, the “levels of NLRP3 protein in kidney tissues” value with NLRP3 was “inhibited”. Also, the “percentage of CD19+CD69+ cells (activated B cells) in CD19+ splenocytes” value in assay [1] was “no significant difference”.
